Source: US6686478B2, “Thienylsulphonylamino(thio)carbonyl compounds” (Bayer Aktiengesellschaft, priority 1996, dated 2004)

Key:
[1] = test system: weeds; experiment: Pre-emergence test, summary for weeds; format: in vivo; conditions: result in words
Description: (§1) Solvent: 5 parts by weight of acetone
(§2) Emulsifier: 1 part by weight of alkylaryl polyglycol ether
(§3) To produce a suitable preparation of active compound, 1 part by weight of active compound is mixed with the stated amount of solvent, the stated amount of emulsifier is added and the concentrate is diluted with water to the desired concentration.
(§4) Seeds of the test plants are sown in normal soil. After about 24 hours, the soil is watered with the preparation of the active compound. Advantageously, the amount of water per unit area is kept constant. The active compound concentration in the preparation is not important, only the active compound application rate per unit area is critical.
(§5) After three weeks, the degree of damage to the plants is rated in % damage in comparison with the development of the untreated control. The figures denote:
(§6) 0%=no effect (like untreated control)

[2] = test system: Solanum; experiment: Pre-emergence test/greenhouse; format: in vivo; conditions: greenhouse, 125 g of ai./ha, after three weeks, 0%=no effect, 100%=total destruction
Description: as §1, §2, §3, §4, §5, §6

[3] = test system: Matricaria; experiment: Pre-emergence test/greenhouse; format: in vivo; conditions: greenhouse, 125 g of ai./ha, after three weeks, 0%=no effect, 100%=total destruction
Description: as §1, §2, §3, §4, §5, §6

[4] = test system: Cyperus; experiment: Pre-emergence test/greenhouse; format: in vivo; conditions: greenhouse, 125 g of ai./ha, after three weeks, 0%=no effect, 100%=total destruction
Description: as §1, §2, §3, §4, §5, §6

[5] = test system: Chenopodium; experiment: Pre-emergence test/greenhouse; format: in vivo; conditions: greenhouse, 125 g of ai./ha, after three weeks, 0%=no effect, 100%=total destruction
Description: as §1, §2, §3, §4, §5, §6

[6] = test system: Lolium; experiment: Pre-emergence test/greenhouse; format: in vivo; conditions: greenhouse, 125 g of ai./ha, after three weeks, 0%=no effect, 100%=total destruction
Description: as §1, §2, §3, §4, §5, §6

[7] = test system: Setaria; experiment: Pre-emergence test/greenhouse; format: in vivo; conditions: greenhouse, 125 g of ai./ha, after three weeks, 0%=no effect, 100%=total destruction
Description: as §1, §2, §3, §4, §5, §6

[8] = test system: Bromus; experiment: Pre-emergence test/greenhouse; format: in vivo; conditions: greenhouse, 125 g of ai./ha, after three weeks, 0%=no effect, 100%=total destruction
Description: as §1, §2, §3, §4, §5, §6

[9] = test system: Wheat; experiment: Pre-emergence test/greenhouse; format: in vivo; conditions: greenhouse, 125 g of ai./ha, after three weeks, 0%=no effect, 100%=total destruction
Description: as §1, §2, §3, §4, §5, §6

[10] = test system: Maize; experiment: Pre-emergence test/greenhouse; format: in vivo; conditions: greenhouse, 125 g of ai./ha, after three weeks, 0%=no effect, 100%=total destruction
Description: as §1, §2, §3, §4, §5, §6

[11] = test system: Alopecurus; experiment: Pre-emergence test/greenhouse; format: in vivo; conditions: greenhouse, 250 g of ai./ha, after three weeks, 0%=no effect, 100%=total destruction
Description: as §1, §2, §3, §4, §5, §6

[12] = test system: Amaranthus; experiment: Pre-emergence test/greenhouse; format: in vivo; conditions: greenhouse, 250 g of ai./ha, after three weeks, 0%=no effect, 100%=total destruction
Description: as §1, §2, §3, §4, §5, §6

[13] = test system: Sinapis; experiment: Pre-emergence test/greenhouse; format: in vivo; conditions: greenhouse, 250 g of ai./ha, after three weeks, 0%=no effect, 100%=total destruction
Description: as §1, §2, §3, §4, §5, §6

[14] = test system: Abutilon; experiment: Pre-emergence test/greenhouse; format: in vivo; conditions: greenhouse, 250 g of ai./ha, after three weeks, 0%=no effect, 100%=total destruction
Description: as §1, §2, §3, §4, §5, §6

[15] = test system: Xanthium; experiment: Pre-emergence test/greenhouse; format: in vivo; conditions: greenhouse, 250 g of ai./ha, after three weeks, 0%=no effect, 100%=total destruction
Description: as §1, §2, §3, §4, §5, §6

[16] = test system: Amaranthus; experiment: Post-emergence test/greenhouse; format: in vivo; conditions: greenhouse, 250 g of ai/ha, after three weeks, 0%=no effect, 100%=total destruction
Description: as §1, §2, §3
(§7) Test plants which have a height of 5-15 cm are sprayed with the preparation of the active compound in such a way as to apply the particular amounts of active compound desired per unit area. The concentration of the spray liquor is chosen so that the amounts of active compound desired in each case are applied in 1000 l of water/ha.
(§8) After three weeks, the degree of damage to the plants is rated in % damage in comparison with the development of the untreated control.
as §6

[17] = test system: Maize; experiment: Post-emergence test/greenhouse; format: in vivo; conditions: greenhouse, 250 g of ai/ha, after three weeks, 0%=no effect, 100%=total destruction
Description: as §1, §2, §3, §7, §8, §6

[18] = test system: Sinapis; experiment: Post-emergence test/greenhouse; format: in vivo; conditions: greenhouse, 250 g of ai/ha, after three weeks, 0%=no effect, 100%=total destruction
Description: as §1, §2, §3, §7, §8, §6

[19] = test system: Setaria; experiment: Post-emergence test/greenhouse; format: in vivo; conditions: greenhouse, 250 g of ai/ha, after three weeks, 0%=no effect, 100%=total destruction
Description: as §1, §2, §3, §7, §8, §6

[20] = test system: weeds; experiment: Post-emergence test, summary for weeds; format: in vivo; conditions: result in words
Description: as §1, §2, §3, §7, §8, §6

[21] = test system: Abutilon; experiment: Post-emergence test/greenhouse; format: in vivo; conditions: greenhouse, 250 g of ai/ha, after three weeks, 0%=no effect, 100%=total destruction
Description: as §1, §2, §3, §7, §8, §6

Row | SMILES | activity against weeds [1] | degree of damage to the plants, Solanum [2] [%] | degree of damage to the plants, Matricaria [3] [%] | degree of damage to the plants, Cyperus [4] [%] | degree of damage to the plants, Chenopodium [5] [%] | degree of damage to the plants, Lolium [6] [%] | degree of damage to the plants, Setaria [7] [%] | degree of damage to the plants, Bromus [8] [%] | degree of damage to the plants, Amaranthus [16] [%] | degree of damage to the plants, Sinapis [18] [%] | degree of damage to the plants, Setaria [19] [%] | activity against weeds [20] | other results
1 | CCOc1nn(C(=O)NS(=O)(=O)c2c(C)csc2C)c(=O)n1C [Example 1, 5-ethoxy-4-methyl-2-(2,4-dimethyl-thien-3-yl-sulphonylaminocarbonyl)-2,4-dihydro-3H-1,2,4-triazol-3-one] | very strong activity | 100 | 100 | 95 | 100 | 100 | 100 | 100 |  |  |  |  | melting point: 158 °C; degree of damage to the plants, Wheat [9]: 0%
2 | Cc1nc(C(=O)NS(=O)(=O)c2c(C)csc2C)no1 [Example 2, N-(2,4-dimethyl-thien-3-yl-sulphonyl)-5-methyl-1,2,4-oxadiazol-3-carboxamide] |  |  |  |  |  |  |  |  |  |  |  |  | melting point: 164 °C
3 | CCc1nn(C(=O)NS(=O)(=O)c2c(C)csc2C)c(=O)n1C [Example 3] | very strong activity | 100 | 100 | 100 | 100 | 100 | 100 | 100 |  |  |  |  | degree of damage to the plants, Maize [10]: 5%
4 | CSc1nn(C(=O)NS(=O)(=O)c2c(C)csc2C)c(=O)n1C [Example 4] | very strong activity | 80 | 90 | 95 | 90 | 100 | 100 | 95 |  |  |  |  | degree of damage to the plants, Maize [10]: 0%; degree of damage to the plants, Wheat [9]: 0%
5 | CCCOc1nn(C(=O)NS(=O)(=O)c2c(C)csc2C)c(=O)n1C [Example 5] | very strong activity |  |  |  |  |  |  |  |  |  |  |  | degree of damage to the plants, Alopecurus [11]: 70%; degree of damage to the plants, Amaranthus [12]: 90%; degree of damage to the plants, Sinapis [13]: 95%; degree of damage to the plants, Abutilon [14]: 90%; degree of damage to the plants, Xanthium [15]: 90%
6 | Cc1csc(C)c1S(=O)(=O)NC(=O)n1nc(OC(C)C)n(C)c1=O [Example 6] |  |  |  |  |  |  |  |  | 90 | 100 | 80 | very strong activity | degree of damage to the plants, Maize [17]: 10%
7 | COc1nn(C(=O)NS(=O)(=O)c2c(C)csc2C)c(=O)n1C [Example 11] | very strong activity | 95 | 100 | 100 | 95 | 100 | 100 | 100 |  |  |  |  | 
8 | CCOc1nn(C(=O)NS(=O)(=O)c2c(C)csc2C)c(=O)n1C1CC1 [Example 12] | very strong activity |  |  |  |  |  |  |  |  |  |  |  | degree of damage to the plants, Alopecurus [11]: 70%; degree of damage to the plants, Amaranthus [12]: 90%; degree of damage to the plants, Sinapis [13]: 95%; degree of damage to the plants, Abutilon [14]: 90%
9 | CCOc1nn(C(=O)NS(=O)(=O)c2c(C)csc2C)c(=O)n1CC [Example 13] |  |  |  |  |  |  |  |  | 100 | 100 | 80 | very strong activity | degree of damage to the plants, Abutilon [21]: 80%
10 | C#CCSc1nn(C(=O)NS(=O)(=O)c2c(C)csc2C)c(=O)n1C [Example 14] |  |  |  |  |  |  |  |  | 95 | 95 | 90 | very strong activity | degree of damage to the plants, Maize [17]: 10%
